Reference: patent US20080200454A1, “CARBON-LINKED TETRAHYDRO-PYRAZOLO-PYRIDINE MODULATORS OF CATHEPSIN S” (priority 2007, published 2008)
Where two headings read alike, the source gives them in different places.

Target: Recombinant human cathepsin S (CatS) (Homo sapiens, UniProt P25774)
Experiment: Recombinant human cathepsin S (CatS) inhibition assay, fluorogenic substrate Z-Valine-Valine-Arginine-AMC;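 also: Baculovirus-expressed CatS in pH 5.0 sodium acetate buffer with DTT and NaCl, fluorescence read each minute over 20 min, inhibition derived from rate slope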

Sequence of Recombinant human cathepsin S (CatS) (P25774 115-331): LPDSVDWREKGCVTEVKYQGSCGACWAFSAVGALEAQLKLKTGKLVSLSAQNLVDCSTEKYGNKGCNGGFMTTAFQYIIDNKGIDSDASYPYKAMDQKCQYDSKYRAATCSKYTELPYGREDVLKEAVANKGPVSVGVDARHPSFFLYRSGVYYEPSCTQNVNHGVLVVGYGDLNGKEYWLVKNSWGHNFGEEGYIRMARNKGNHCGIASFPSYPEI

IC50 [nM] | Compound | IC50 (CatS IC50) [nM]
20 | NC(=O)C(=O)N1CCc2c(c(-c3ccc(Cl)c(C#Cc4ccc(Cl)c(C(=O)NCC5CCCNC5)c4)c3)nn2CCCN2CCSCC2)C1 (centres unmarked) [Example 579, 5-[(5-{5-[Amino(oxo)acetyl]-1-(3-thiomorpholin-4-ylpropyl)-4,5,6,7-tetrahydro-1H-pyrazolo[4,3-c]pyridin-3-yl}-2-chlorophenyl)ethynyl]-2-chloro-N-(piperidin-3-ylmethyl)benzamide] | –
30 | NC(=O)C(=O)N1CCc2c(c(-c3ccc(Cl)c(C#Cc4ccc(Cl)c(C(=O)NCC5CNCCO5)c4)c3)nn2CCCN2CCSCC2)C1 (centres unmarked) [Example 580, 5-[(5-{5-[Amino(oxo)acetyl]-1-(3-thiomorpholin-4-ylpropyl)-4,5,6,7-tetrahydro-1H-pyrazolo[4,3-c]pyridin-3-yl}-2-chlorophenyl)ethynyl]-2-chloro-N-(morpholin-2-ylmethyl)benzamide] | –
30 | NC(=O)C(=O)N1CCc2c(c(-c3ccc(Cl)c(C#Cc4ccc(Cl)c(C(=O)NCCN5CCOCC5)c4)c3)nn2CCCN2CCSCC2)C1 [Example 581, 5-[(5-{5-[Amino(oxo)acetyl]-1-(3-thiomorpholin-4-ylpropyl)-4,5,6,7-tetrahydro-1H-pyrazolo[4,3-c]pyridin-3-yl}-2-chlorophenyl)ethynyl]-2-chloro-N-(2-morpholin-4-ylethyl)benzamide] | –
40 | NC(=O)N1CCc2c(c(-c3ccc(Cl)c(C#Cc4ccc(Cl)c(C(=O)NC[C@@H]5CCNC5)c4)c3)nn2CCCN2CCSCC2)C1 [Example 582, 3-{4-Chloro-3-[(4-chloro-3-{[(3R)-pyrrolidin-3-ylmethyl]carbamoyl}phenyl)ethynyl]phenyl}-1-(3-thiomorpholin-4-ylpropyl)-1,4,6,7-tetrahydro-5H-pyrazolo[4,3-c]pyridine-5-carboxamide] | –
30 | NC(=O)N1CCc2c(c(-c3ccc(Cl)c(C#Cc4ccc(Cl)c(C(=O)NCC5CCCNC5)c4)c3)nn2CCCN2CCSCC2)C1 (centres unmarked) [Example 583, 3-[4-Chloro-3-({4-chloro-3-[(piperidin-3-ylmethyl)carbamoyl]phenyl}ethynyl)phenyl]-1-(3-thiomorpholin-4-ylpropyl)-1,4,6,7-tetrahydro-5H-pyrazolo[4,3-c]pyridine-5-carboxamide] | –
40 | NC(=O)N1CCc2c(c(-c3ccc(Cl)c(C#Cc4ccc(Cl)c(C(=O)NCC5CNCCO5)c4)c3)nn2CCCN2CCSCC2)C1 (centres unmarked) [Example 584, 3-[4-Chloro-3-({4-chloro-3-[(morpholin-2-ylmethyl)carbamoyl]phenyl}ethynyl)phenyl]-1-(3-thiomorpholin-4-ylpropyl)-1,4,6,7-tetrahydro-5H-pyrazolo[4,3-c]pyridine-5-carboxamide] | –
40 | NC(=O)N1CCc2c(c(-c3ccc(Cl)c(C#Cc4ccc(Cl)c(C(=O)NCCN5CCOCC5)c4)c3)nn2CCCN2CCSCC2)C1 [Example 585, 3-[4-Chloro-3-({4-chloro-3-[(2-morpholin-4-ylethyl)carbamoyl]phenyl}ethynyl)phenyl]-1-(3-thiomorpholin-4-ylpropyl)-1,4,6,7-tetrahydro-5H-pyrazolo[4,3-c]pyridine-5-carboxamide] | –
– | C[C@H]1COCCN1CCCn1nc(-c2ccc(Cl)c(C#Cc3ccc(Cl)c(C(=O)NC[C@@H]4CCNC4)c3)c2)c2c1CCN(C(=O)C(N)=O)C2 [Example 586, 5-{[5-(5-[Amino(oxo)acetyl]-1-{3-[(3S)-3-methylmorpholin-4-yl]propyl}-4,5,6,7-tetrahydro-1H-pyrazolo[4,3-c]pyridin-3-yl)-2-chlorophenyl]ethynyl}-2-chloro-N-[(3R)-pyrrolidin-3-ylmethyl]benzamide] | 20
20 | C[C@H]1COCCN1CCCn1nc(-c2ccc(Cl)c(C#Cc3ccc(Cl)c(C(=O)NCC4CCCNC4)c3)c2)c2c1CCN(C(=O)C(N)=O)C2 (stereo partly drawn) [Example 587, 5-{[5-(5-[Amino(oxo)acetyl]-1-{3-[(3S)-3-methylmorpholin-4-yl]propyl}-4,5,6,7-tetrahydro-1H-pyrazolo[4,3-c]pyridin-3-yl)-2-chlorophenyl]ethynyl}-2-chloro-N-(piperidin-3-ylmethyl)benzamide] | –
– | C[C@H]1COCCN1CCCn1nc(-c2ccc(Cl)c(C#Cc3ccc(Cl)c(CN4CCOCC4)c3)c2)c2c1CCN(C(=O)C(N)=O)C2 [Example 588, 2-[3-(4-Chloro-3-{[4-chloro-3-(morpholin-4-ylmethyl)phenyl]ethynyl}phenyl)-1-{3-[(3S)-3-methylmorpholin-4-yl]propyl}-1,4,6,7-tetrahydro-5H-pyrazolo[4,3-c]pyridin-5-yl]-2-oxoacetamide] | 40
– | C[C@H]1COCCN1CCCn1nc(-c2ccc(Cl)c(C#Cc3ccc(Cl)c(CNC4CC4)c3)c2)c2c1CCN(C(=O)C(N)=O)C2 [Example 589, 2-(3-[4-Chloro-3-({4-chloro-3-[(cyclopropylamino)methyl]phenyl}ethynyl)phenyl]-1-{3-[(3S)-3-methylmorpholin-4-yl]propyl}-1,4,6,7-tetrahydro-5H-pyrazolo[4,3-c]pyridin-5-yl)-2-oxoacetamide] | 30
– | NC(=O)N1CCc2c(c(-c3ccc(Cl)c(C#Cc4ccc(Cl)c(C(=O)NCCN5CCOCC5)c4)c3)nn2CCCN2CCCCC2)C1 [Example 590, 3-[4-Chloro-3-({4-chloro-3-[(2-morpholin-4-ylethyl)carbamoyl]phenyl}ethynyl)phenyl]-1-(3-piperidin-1-ylpropyl)-1,4,6,7-tetrahydro-5H-pyrazolo[4,3-c]pyridine-5-carboxamide] | 70
– | NC(=O)C(=O)N1CCc2c(c(-c3ccc(Cl)c(C#Cc4ccc(Cl)c(C(=O)NCCN5CCOCC5)c4)c3)nn2CCCN2CCCCC2)C1 [Example 591, 5-[(5-{5-[Amino(oxo)acetyl]-1-(3-piperidin-1-ylpropyl)-4,5,6,7-tetrahydro-1H-pyrazolo[4,3-c]pyridin-3-yl}-2-chlorophenyl)ethynyl]-2-chloro-N-(2-morpholin-4-ylethyl)benzamide] | 30
20 | CCNCc1cc(C#Cc2cc(-c3nn(CCCN4CCCCC4)c4c3CN(C(=O)C(N)=O)CC4)ccc2Cl)ccc1Cl [Example 592, 2-{3-[4-Chloro-3-({4-chloro-3-[(ethylamino)methyl]phenyl}ethynyl)phenyl]-1-(3-piperidin-1-ylpropyl)-1,4,6,7-tetrahydro-5H-pyrazolo[4,3-c]pyridin-5-yl}-2-oxoacetamide] | –
60 | CS(=O)(=O)N1CCc2c(c(-c3ccc(Cl)c(C#Cc4ccc(Cl)c(C(=O)NCCN5CCOCC5)c4)c3)nn2CCCN2CCCCC2)C1 [Example 593, 2-Chloro-5-({2-chloro-5-[5-(methylsulfonyl)-1-(3-piperidin-1-ylpropyl)-4,5,6,7-tetrahydro-1H-pyrazolo[4,3-c]pyridin-3-yl]phenyl}ethynyl)-N-(2-morpholin-4-ylethyl)benzamide] | –
30 | CCNCc1cc(C#Cc2cc(-c3nn(CCCN4CCCCC4)c4c3CN(S(C)(=O)=O)CC4)ccc2Cl)ccc1Cl [Example 594, N-[2-Chloro-5-({2-chloro-5-[5-(methylsulfonyl)-1-(3-piperidin-1-ylpropyl)-4,5,6,7-tetrahydro-1H-pyrazolo[4,3-c]pyridin-3-yl]phenyl}ethynyl)benzyl]ethanamine] | –
– | NC(=O)C(=O)N1CCc2c(c(-c3ccc(Cl)c(C#Cc4ccc(Cl)c(CNC5CCCC5)c4)c3)nn2CCCN2CCCCC2)C1 [Example 595, 2-{3-[4-Chloro-3-({4-chloro-3-[(cyclopentylamino)methyl]phenyl}ethynyl)phenyl]-1-(3-piperidin-1-ylpropyl)-1,4,6,7-tetrahydro-5H-pyrazolo[4,3-c]pyridin-5-yl}-2-oxoacetamide] | 10
– | NC(=O)N1CCc2c(c(-c3ccc(Cl)c(C#Cc4ccc(Cl)c(CNC5CC5)c4)c3)nn2CCCN2CCCCC2)C1 [Example 596, 3-[4-Chloro-3-({4-chloro-3-[(cyclopropylamino)methyl]phenyl}ethynyl)phenyl]-1-(3-piperidin-1-ylpropyl)-1,4,6,7-tetrahydro-5H-pyrazolo[4,3-c]pyridine-5-carboxamide] | 30
– | CS(=O)(=O)N1CCc2c(c(-c3ccc(Cl)c(C#Cc4ccc(Cl)c(CNC5CCCC5)c4)c3)nn2CCCN2CCCCC2)C1 [Example 597, N-[2-Chloro-5-({2-chloro-5-[5-(methylsulfonyl)-1-(3-piperidin-1-ylpropyl)-4,5,6,7-tetrahydro-1H-pyrazolo[4,3-c]pyridin-3-yl]phenyl}ethynyl)benzyl]cyclopentanamine] | 40
– | C[C@H]1COCCN1CCCn1nc(-c2ccc(Cl)c(C#Cc3ccc(Cl)c(C(=O)NCC4CNC4)c3)c2)c2c1CCN(C(=O)C(N)=O)C2 [Example 598, 5-{[5-(5-[Amino(oxo)acetyl]-1-{3-[(3S)-3-methylmorpholin-4-yl]propyl}-4,5,6,7-tetrahydro-1H-pyrazolo[4,3-c]pyridin-3-yl)-2-chlorophenyl]ethynyl}-N-(azetidin-3-ylmethyl)-2-chlorobenzamide] | 30
30 | NC(=O)N1CCc2c(c(-c3ccc(Cl)c(C#Cc4ccc(Cl)c(CNC5CCCC5)c4)c3)nn2CCCN2CCSCC2)C1 [Example 599, 3-[4-Chloro-3-({4-chloro-3-[(cyclopentylamino)methyl]phenyl}ethynyl)phenyl]-1-(3-thiomorpholin-4-ylpropyl)-1,4,6,7-tetrahydro-5H-pyrazolo[4,3-c]pyridine-5-carboxamide] | –
30 | NC(=O)C(=O)N1CCc2c(c(-c3ccc(Cl)c(C#Cc4ccc(Cl)c(CNC5CC5)c4)c3)nn2CCCN2CCCCC2)C1 [Example 600, 2-{3-[4-Chloro-3-({4-chloro-3-[(cyclopropylamino)methyl]phenyl}ethynyl)phenyl]-1-(3-piperidin-1-ylpropyl)-1,4,6,7-tetrahydro-5H-pyrazolo[4,3-c]pyridin-5-yl}-2-oxoacetamide] | –
30 | NC(=O)C(=O)N1CCc2c(c(-c3ccc(Cl)c(C#Cc4ccc(Cl)c(CN5CCOCC5)c4)c3)nn2CCCN2CCCCC2)C1 [Example 601, 2-[3-(4-Chloro-3-{[4-chloro-3-(morpholin-4-ylmethyl)phenyl]ethynyl}phenyl)-1-(3-piperidin-1-ylpropyl)-1,4,6,7-tetrahydro-5H-pyrazolo[4,3-c]pyridin-5-yl]-2-oxoacetamide] | –
